Molecular target: T1, human IBAT (Homo sapiens, UniProt Q12908)
T1 construct: expressed in transfected cells; host or cells: Baby hamster kidney (BHK) cells, clone H14
T1 sequence (Q12908 1-348): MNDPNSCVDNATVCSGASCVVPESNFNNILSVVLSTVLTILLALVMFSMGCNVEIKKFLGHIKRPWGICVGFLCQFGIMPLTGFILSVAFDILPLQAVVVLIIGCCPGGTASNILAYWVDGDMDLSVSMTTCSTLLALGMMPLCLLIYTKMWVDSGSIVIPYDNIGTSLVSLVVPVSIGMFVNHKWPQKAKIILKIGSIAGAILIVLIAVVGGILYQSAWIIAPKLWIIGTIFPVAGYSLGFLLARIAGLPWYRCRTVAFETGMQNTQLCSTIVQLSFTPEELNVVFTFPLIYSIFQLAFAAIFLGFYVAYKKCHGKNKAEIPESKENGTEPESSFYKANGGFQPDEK
Test: In vitro assay of IBAT-mediated uptake of [14C]-taurocholate (TC) in H14 cells
Assay type: cell-based
Conditions: 100 uM
Method in brief: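 BHK cells stably expressing human IBAT (H14) were incubated 2 h at 37° C with compound and 3 μM final [14C]-taurocholate in DMEM (4.5 g/L glucose) plus 0.2% fatty acid-free BSA. After cold PBS washes, cell-associated radioactivity was measured by scintillation counting.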

SMILES	In vitro % Inhibition of TC Uptake @ 100 uM
CCCCC1(CC)CS(=O)(=O)c2ccccc2C(Sc2ccccc2)C1O (single isomer, unassigned) [Example 21b, 3-Butyl-3-ethyl-4-hydroxy-5-phenylthio-2,3,4,5-tetrahydro-benzothiepine-1,1-dioxide]	45%

Same assay, conditions: 100 uM; read-out: In vitro % Inhibition of TC Uptake @ 100 uM

SMILES	inhibition at 100 µM
CCCCC1(CC)C=Cc2ccccc2SC1 (centres unmarked) [Example 18, 3-Butyl-3-ethyl-2,3-dihydrobenzothiepine]	6%
CCCC[C@]1(CC)CS(=O)(=O)c2ccccc2[C@@]2(c3ccccc3)O[C@@H]12 [Example 8a, (1aα,2β,8bα) 2-Butyl-2-ethyl-8b-phenyl-1α,2,3,8b-tetrahydro-benzothiepino[4,5-b]oxirene-4,4-dioxide]	41%

Same assay, conditions: Human TC IC50

SMILES	IC50
CCCCC1(CC)CS(=O)(=O)c2ccc(OCCCCCCOc3ccc4c(c3)C(c3ccccc3)C(O)C(CC)(CCCC)CS4(=O)=O)cc2C(c2ccccc2)C1O (centres unmarked) [Example 139]	> 25000 nM

Same assay, conditions: read-out: Human TC IC50

SMILES	IC50
CCCCC1(CCCC)CS(=O)(=O)c2ccc(F)cc2C(c2cccc([N+](=O)[O-])c2)C1O (centres unmarked) [Example 1224]	330 nM
CCCCC1(CCCC)CS(=O)(=O)c2ccc(N(C)C)cc2C(c2cccc(OCCN(CC)CC)c2)C1O (centres unmarked) [Example 1235]	45 nM
CCCCC1(CCCC)CS(=O)(=O)c2ccc(N(C)C)cc2C(c2ccc(OC(=O)C(OC)(c3ccccc3)C(F)(F)F)cc2)C1O (centres unmarked) [Example 1306]	1200 nM
CCCCC1(CCCC)CS(=O)(=O)c2ccc(N(C)C)cc2C(c2ccc(OCCC[n+]3ccc(N(C)C)cc3)c(F)c2)C1O (centres unmarked) [Example 1053]	3 nM
CCCCC1(CC)CS(=O)(=O)c2ccc(N)cc2C(c2ccc(OC)cc2)C1O (centres unmarked) [Example 114]	190 nM
CCCCC1(CCCC)CS(=O)(=O)c2ccc(N(C)C)cc2C(c2cccc(OCCOCCOCC[N+](CC)(CC)CCC(C)=O)c2)C1O (centres unmarked) [Example 1293]	19 nM
CCCCC1(CC)CS(=O)(=O)c2ccc(NO)cc2C(c2ccccc2)C1O (single isomer, unassigned) [Example 1314]	260 nM
CCCCC1(CCCC)CS(=O)(=O)c2ccc(N(C)C)cc2C(c2cccc(OCCOCCOCC[N+](C)(C)CC(=O)O)c2)C1O (centres unmarked) [Example 1016]	2 nM
CCCCC1(CC)CS(=O)(=O)c2ccc(NO)cc2C(c2ccccc2)C1O (single isomer, unassigned) [Example 1311]	3270 nM
CCCCC1(CCCC)CS(=O)(=O)c2ccc(N(C)C)cc2C(c2cccc(OCCOCCOCC[n+]3ccccc3-c3ccccc3)c2)C1O (centres unmarked) [Example 1369]	5 nM
CCCCCCCC[N+](CCCCCCCC)(CCCCCCCC)CCOCCOCCOc1cccc(C2c3cc(N(C)C)ccc3S(=O)(=O)CC(CCCC)(CCCC)C2O)c1 (centres unmarked) [Example 1289]	26 nM
CCCCC1(CCCC)CS(=O)(=O)c2ccc(NC(C)(C)C)cc2C(c2cccc(OC)c2)C1O (centres unmarked) [Example 1304]	250 nM
CCCCC1(CCCC)CS(=O)(=O)c2ccc(N(C)C)cc2C(c2ccc(OCC[N+](C)(C)CCOCCOCC[N+](C)(C)C)cc2)C1O (centres unmarked) [Example 1237]	70 nM
CCCCC1(CCCC)CS(=O)(=O)c2ccc(OC)cc2C(c2cc[n+]([O-])cc2)C1O (centres unmarked) [Example 1198]	2500 nM
CCCCC1(CC)CS(=O)(=O)c2ccc(N(C)C)cc2C(c2cccc(O)c2)C1O (centres unmarked) [Example 1260]	12 nM
CCCCC1(CCCC)CS(=O)(=O)c2ccc(N(C)C)cc2C(c2cccc(C[N+](C)(C)CC[N+](C)(C)C)c2)C1O (centres unmarked) [Example 1255]	690 nM
CCCCC1(CCCC)CS(=O)(=O)c2ccc(N(C)C)cc2C(c2cccc(OCCOCCOCC[P+](c3ccccc3)(c3ccccc3)c3ccccc3)c2)C1O (centres unmarked) [Example 1292]	25 nM
CCCCCCOc1ccc2c(c1)S(=O)(=O)CC(CC)(CCCC)C(O)C2c1ccccc1 (centres unmarked) [Example 1312]	5000 nM
CCCCC1(CCCC)CS(=O)(=O)c2ccc(N(C)C)cc2C(c2cccc(OCCOCCOCC[N+]3(CCOc4ccc(Br)cc4)CCCC3)c2)C1O (centres unmarked) [Example 1288]	13 nM
CCCCC1(CCCC)CS(=O)(=O)c2ccc(N(C)C)cc2C(c2cccc(OCCOCCOCC[n+]3nnn4c3CCCCC4)c2)C1O (centres unmarked) [Example 1360]	3 nM
CCCCC1(CCCC)CS(=O)(=O)c2ccc(N(C)C)cc2C(c2ccsc2)C1O (centres unmarked) [Example 1085]	5 nM
CCCCC1(CCCC)CS(=O)(=O)c2ccc(N(C)C)cc2C(c2cccc(OCCOCCOCC[N+](CC)(CC)CCC(=O)O)c2)C1O (centres unmarked) [Example 1362]	19 nM
CCCCC1(CCCC)CS(=O)(=O)c2ccc(N(C)C)cc2C(c2ccc(OCCOCCOCC[N+]3(C)CCCN(C)CCN(C)CCCN(C)CC3)cc2)C1O (centres unmarked) [Example 1055]	3 nM
CCCCC1(CCCC)CS(=O)(=O)c2ccc(C)cc2C(c2ccc(F)cc2)C1O (centres unmarked) [Example 1187]	320 nM
C=COCCOCCOCCOc1ccc(C2c3cc(N(C)C)ccc3S(=O)(=O)CC(CCCC)(CCCC)C2O)cc1F (centres unmarked) [Example 1238]	800 nM
CCCCC1(CCCC)CS(=O)(=O)c2ccc(N(C)C)cc2C(c2ccc(OCCCCCCCCCC[N+](C)(C)C)cc2)C1O (centres unmarked) [Example 1146]	29 nM
CCCCC1(CCCC)CS(=O)(=O)c2ccc(N(C)C)cc2C(c2cccc(OCCOCCOCC[n+]3ccc(C4CCC(C)CC4)cc3)c2)C1O (centres unmarked) [Example 1297]	29 nM
CCCCC1(CCCC)CS(=O)(=O)c2ccc(N(C)C)cc2C(c2cccc(OCCOCCOCC[N+](CC)(CC)CCN(C)S(=O)(=O)c3ccccc3)c2)C1O (centres unmarked) [Example 1080]	5 nM

SMILES	IC50
CCCCC1(CCCC)CS(=O)(=O)c2ccc(N(C)C)cc2C(c2ccc(OC)c(F)c2)C1O (single isomer, unassigned) [Example 1143]	27 nM
CCCCC1(CCCC)CS(=O)(=O)c2c(cccc2S(C)(=O)=O)C(c2ccc(OC)cc2)C1O (centres unmarked) [Example 1218]	190 nM
CCCCC1(CCCC)CS(=O)(=O)c2ccc(C)cc2C(c2ccc(F)cc2)C1O (centres unmarked) [Example 1155]	39 nM
CCCCC1(CCCC)CS(=O)(=O)c2ccc(N(C)C)cc2C(c2ccc(OCc3cccc(C[N+](CC)(CC)CC)c3)c(F)c2)C1O (centres unmarked) [Example 1025]	2 nM
CCCCC1(CCCC)CS(=O)(=O)c2c(cccc2N2CCOCC2)C(c2ccc(OC)cc2)C1O (single isomer, unassigned) [Example 1307]	3100 nM
CCCCC1(CCCC)CS(=O)(=O)c2ccc(N(C)C)cc2C(c2cccc(OCCOCCOCC[n+]3ccc(CO)cc3)c2)C1O (centres unmarked) [Example 1072]	4 nM
CCCCC1(CC)CS(=O)(=O)c2cc(OCC)ccc2C(c2ccccc2)C1O (centres unmarked) [Example 1313]	6100 nM
CCCCC1(CC)CS(=O)(=O)c2ccc(N)cc2C(c2ccccc2)C1O (single isomer, unassigned) [Example 121]	68 nM
CCCCC1(CCCC)CS(=O)(=O)c2ccc(N(C)C)cc2C(c2cccc(OCCOCCOCC[P+](CC)(CC)CC)c2)C1O (centres unmarked) [Example 1358]	8 nM
CCCCC1(CCCC)CS(=O)(=O)c2ccc(N(C)C)cc2C(c2ccc(OC)c(OC)c2)C1O (centres unmarked) [Example 1135]	21 nM
CCCCC1(CCCC)CS(=O)(=O)c2ccc(NCC)cc2C(c2ccc(F)cc2)C1O (centres unmarked) [Example 1149]	30 nM
CCCCC1(CC)CS(=O)(=O)c2ccc(N)cc2C(c2ccc(OCCOCCOCC[N+](C)(C)C)cc2)C1O (centres unmarked) [Example 296]	1600 nM
CCCCC1(CCCC)CS(=O)(=O)c2ccc(OC)cc2C(c2cccc(N(C)C)c2)C1O (centres unmarked) [Example 1163]	90 nM
CCCC[C@]1(CC)CS(=O)(=O)c2ccc(N)cc2[C@@H](c2ccc(O)cc2)[C@H]1O [Example 113]	100 nM
CCCCC1(CCCC)CS(=O)(=O)c2ccc(N(C)C)cc2C(c2cccc(OCCOCCOCC[n+]3cc4ccccc4cc3C)c2)C1O (centres unmarked) [Example 1052]	3 nM
CCCC[C@]1(CC)CS(=O)(=O)c2ccc(N)cc2[C@@H](c2ccc(OCCOCCOCCOc3ccc([C@H]4c5cc(N)ccc5S(=O)(=O)C[C@](CC)(CCCC)[C@H]4O)cc3)cc2)[C@H]1O [Example 112]	3000 nM
CCCCC1(CCCC)CS(=O)(=O)c2ccc(N(C)C)cc2C(c2ccc(OCCCCOCCCC[n+]3ccccc3)c(F)c2)C1O (centres unmarked) [Example 1019]	2 nM
CCCCC1(CC)CS(=O)(=O)c2ccc(SC)cc2C(c2cccc(OC)c2)C1O (single isomer, unassigned) [Example 143]	30 nM
CCCCC1(CCCC)CS(=O)(=O)c2ccc(OC)cc2C(c2ccc(F)cc2)C1O (centres unmarked) [Example 1204]	50 nM
CCCCC1(CC)CS(=O)(=O)c2ccc(N)cc2C(c2ccccc2)C1O (single isomer, unassigned) [Example 122]	1070 nM
CCCCC1(CCCC)CS(=O)(=O)c2ccc([S+](C)C)cc2C(c2ccc(F)cc2)C1O (centres unmarked) [Example 1148]	30 nM
CCCCC1(CC)CS(=O)(=O)c2ccc([N+](C)(C)C)cc2C(c2ccc(OC)c(F)c2)C1O (centres unmarked) [Example 1282]	170 nM
CCCCC1(CCCC)CS(=O)(=O)c2ccc(N(C)C)cc2C(c2cccc(OCC[N+](C)(C)C)c2)C1O (centres unmarked) [Example 1038]	2.5 nM
CCCCC1(CC)CS(=O)(=O)c2ccc(N(C)C)cc2C(c2cccc(OCCCCOC(C)=O)c2)C1O (centres unmarked) [Example 1134]	20 nM
CCCCC1(CC)CS(=O)(=O)c2cc(OC(C)=O)ccc2C(c2ccccc2)C1O (centres unmarked) [Example 138]	3000 nM
CCCCC1(CC)CS(=O)(=O)c2ccc(OC)cc2C(c2ccc(F)cc2)C1O (centres unmarked) [Example 269]	80 nM
CCCCC1(CCCC)CS(=O)(=O)c2ccc(N(C)C)cc2C(c2cccc(OCCOCCOCC[N+]3(C)CCC(C(=O)c4ccccc4)CC3)c2)C1O (centres unmarked) [Example 1029]	2 nM
